# Assay results: the supplement of paper PMC11061612
# How the values were obtained:
# Assay in all cases: Bliss excess, mean over the matrix (fraction); higher = more synergy
# KYM-1 (Rhabdomyosarcoma) = tested on: KYM-1 (Rhabdomyosarcoma)
# How it was run: (§1)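 Cell lines in DMEM/F12 or RPMI with 10% FBS were plated in 1536-well plates, held 24 hours at 37°C, 5% CO2, then given two-drug dose matrices for 72 hours (DMSO typically 0.2%). Viability was read by CellTiter-Glo 2.0 luminescence and scaled as inhibition from 0 (vehicle wells) to 1 (blank wells). Combination Emax is the second-highest inhibition in the matrix; Bliss excess is observed combination effect minus expected EA + EB − EA·EB, EA and EB being single-agent effects.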
# [1] = tested on: JHH-1 (Hepatocellular Carcinoma)
# How it was run: as §1
# [2] = tested on: SJRH30 (Rhabdomyosarcoma)
# How it was run: as §1
# RT4 (Bladder Carcinoma) = tested on: RT4 (Bladder Carcinoma)
# How it was run: as §1
# [3] = tested on: RMG-I (Ovarian Carcinoma)
# How it was run: as §1
# [4] = tested on: AsPC-1 (Pancreatic Carcinoma)
# How it was run: as §1
# [5] = tested on: NCI-H1755 (Lung Adenocarcinoma)
# How it was run: as §1
# HuO-3N1 (Osteosarcoma) = tested on: HuO-3N1 (Osteosarcoma)
# How it was run: as §1
# [6] = tested on: NKM-1 (Acute Myeloid Leukemia)
# How it was run: as §1
# [7] = tested on: OV-90 (Ovarian Carcinoma)
# How it was run: as §1
# [8] = tested on: PANC-02-03 (Pancreatic Carcinoma)
# How it was run: as §1
# [9] = tested on: KYSE-70 (Esophageal Squamous Cell Carcinoma)
# How it was run: as §1
# [10] = tested on: OVTOKO (Ovarian Carcinoma)
# How it was run: as §1
# [11] = tested on: RPMI-8866 (Chronic Myelogenous Leukemia)
# How it was run: as §1
# [12] = tested on: HSC-3 (Oral Cavity Carcinoma)
# How it was run: as §1
# [13] = tested on: SK-MM-2 (Plasma Cell Myeloma)
# How it was run: as §1
# [14] = tested on: Caov-3 (Ovarian Carcinoma)
# How it was run: as §1
# [15] = tested on: AN3-CA (Endometrial Carcinoma)
# How it was run: as §1
# [16] = tested on: NCI-H1155 (Non-Small Cell Lung Carcinoma)
# How it was run: as §1
# [17] = tested on: SNU-175 (Colorectal Carcinoma)
# How it was run: as §1
Compound,Bliss excess (KYM-1 (Rhabdomyosarcoma)),Bliss excess [1],Bliss excess [2],Bliss excess (RT4 (Bladder Carcinoma)),Bliss excess [3],Bliss excess [4],Bliss excess [5],Bliss excess (HuO-3N1 (Osteosarcoma)),Bliss excess [6],Bliss excess [7],Bliss excess [8],Bliss excess [9],Bliss excess [10],Bliss excess [11],Bliss excess [12],Bliss excess [13],Bliss excess [14],Bliss excess [15],Bliss excess [16],Bliss excess [17]
"Cc1c2c(nn1C)CSCc1cc(n(C)n1)CSc1cc(c3ccccc3c1)OCCCc1c(C(=O)O)n(C)c3c-2c(Cl)ccc13 [AZD5991] + Cn1cnc2c(F)c(Nc3ccc(Br)cc3Cl)c(C(=O)NOCCO)cc21 [Selumetinib] (first compound max 1 µM, 7x7, partner max 3 µM)",0.0084,0.0408,0.0386,0.0266,-0.0027,-0.0325,0.0427,-0.0008,-0.0014,-0.0143,-0.003,0.0244,-0.039,-0.0462,0.0137,-0.0194,0.0536,0.0158,0.0008,
"CC(=O)c1c(C)c2cnc(Nc3ccc(N4CCNCC4)cn3)nc2n(C2CCCC2)c1=O [Palbociclib] + Cc1c2c(nn1C)CSCc1cc(n(C)n1)CSc1cc(c3ccccc3c1)OCCCc1c(C(=O)O)n(C)c3c-2c(Cl)ccc13 [AZD5991] (first compound max 10 µM, 7x7, partner max 1 µM)",0.0337,-0.0111,-0.0488,-0.0244,-0.061,-0.0859,-0.0188,-0.0972,-0.0003,-0.0568,-0.0522,-0.0462,-0.0315,-0.004,-0.0811,0.0033,,-0.0305,-0.059,-0.0496
"CN(C)CCCOc1ccc(-c2ccc3ncc4c(c3c2)n(C2CCOCC2)c(=O)n4C)cn1 [AZD0156] + O=C(c1cc(Cc2n[nH]c(=O)c3ccccc23)ccc1F)N1CCN(C(=O)C2CC2)CC1 [Olaparib] (first compound max 3 µM, partner max 3 µM)",0.185,0.0084,0.0963,-0.0044,-0.0428,0.005,-0.0055,-0.0328,0.0587,0.035,0.0278,-0.0054,-0.0032,0.0607,0.132,-0.161,,0.0263,0.103,0.105
"COc1cc2ncnc(Nc3ccc(F)c(Cl)c3)c2cc1OCCCN1CCOCC1 [Gefitinib] + CC(C)n1c(=O)n(C)c2cnc3cc(F)c(-c4ccc(OCCCN5CCCCC5)nc4)cc3c21 [AZD1390] (first compound max 10 µM, 7x7, partner max 0.3 µM)",-0.0515,-0.0772,-0.0407,-0.176,-0.0346,-0.0975,-0.0854,-0.0756,-0.0581,-0.0468,-0.0431,-0.038,-0.0672,-0.0857,-0.0649,-0.0267,,-0.0592,-0.056,-0.0457
"Cc1nc(Nc2ncc(C(=O)Nc3c(C)cccc3Cl)s2)cc(N2CCN(CCO)CC2)n1 [Dasatinib] + CC(=O)Nc1cccc(-n2c(=O)n(C3CC3)c(=O)c3c(Nc4ccc(I)cc4F)n(C)c(=O)c(C)c32)c1 [Trametinib] (first compound max 2 µM, 7x7, partner max 1 µM)",-0.0178,0.0492,-0.0973,-0.0057,-0.0276,0.0506,-0.0052,-0.159,-0.0196,-0.0067,0.0762,-0.0729,-0.139,0.073,-0.0444,-0.0157,,-0.168,-0.0132,-0.0992
"C=CCn1c(=O)c2cnc(Nc3ccc(N4CCN(C)CC4)cc3)nc2n1-c1cccc(C(C)(C)O)n1 [AZD1775] + C1CN(CCC1(C(=O)N[C@@H](CCO)C2=CC=C(C=C2)Cl)N)C3=NC=NC4=C3C=CN4 [Capivasertib] (first compound max 3 µM, partner max 3 µM)",-0.0084,-0.018,-0.0065,-0.0355,-0.0349,-0.0654,-0.0691,-0.0033,-0.0746,-0.0235,-0.018,-0.0193,-0.0135,0.0091,0.0552,-0.0629,,0.0797,0.0056,0.0244
"NC1(C(=O)N[C@@H](CCO)c2ccc(Cl)cc2)CCN(c2ncnc3[nH]ccc23)CC1 [Capivasertib] + COc1nnc2ccc(N3CCC(c4ccc(OCCN5CCN(C)C(=O)[C@H]5C)cc4)CC3)nn12 [AZD5153] (first compound max 10 µM, 7x7, partner max 1 µM)",-0.0306,-0.0072,0.0117,-0.0021,-0.0448,-0.0273,-0.0278,0.0531,-0.0157,0.0045,0.0132,-0.0109,0.0497,-0.0511,0.0078,-0.107,,0.0778,0.0992,-0.055
"C[C@@H](c1ccc2nccn2c1)n1nnc2ncc(-c3cnn(C)c3)nc21 [Savolitinib] + Cc1c2c(nn1C)CSCc1cc(n(C)n1)CSc1cc(c3ccccc3c1)OCCCc1c(C(=O)O)n(C)c3c-2c(Cl)ccc13 [AZD5991] (first compound max 1 µM, 7x7, partner max 1 µM)",-0.0309,-0.0462,-0.0432,0.0148,-0.0327,-0.118,-0.0361,-0.0631,-0.0069,-0.0519,-0.0374,-0.0339,-0.0743,-0.0285,-0.018,-0.0395,,-0.0365,-0.0188,-0.0713
"COc1nnc2ccc(N3CCC(c4ccc(OCCN5CCN(C)C(=O)[C@H]5C)cc4)CC3)nn12 [AZD5153] + Cc1c2c(nn1C)CSCc1cc(n(C)n1)CSc1cc(c3ccccc3c1)OCCCc1c(C(=O)O)n(C)c3c-2c(Cl)ccc13 [AZD5991] (first compound max 1 µM, 7x7, partner max 1 µM)",0.0335,0.106,0.0045,0.0009,-0.0553,-0.0639,-0.0785,-0.0118,-0.0491,-0.0389,-0.0493,-0.0652,-0.0536,-0.0361,-0.0069,-0.0156,,-0.0205,-0.0091,0.0113
"Cn1cnc2c(F)c(Nc3ccc(Br)cc3Cl)c(C(=O)NOCCO)cc21 [Selumetinib] + CCN(CCO)CCCOc1ccc2c(Nc3cc(CC(=O)Nc4cccc(F)c4)[nH]n3)ncnc2c1 [AZD2811] (first compound max 10 µM, 7x7, partner max 1 µM)",-0.0102,-0.0327,-0.0008,-0.0816,-0.0385,0.0032,0.0386,-0.106,-0.0376,-0.0252,-0.0144,0.0047,-0.0303,0.0543,-0.0877,-0.0037,,0.0242,0.0907,-0.0253
"COc1nnc2ccc(N3CCC(c4ccc(OCCN5CCN(C)C(=O)[C@H]5C)cc4)CC3)nn12 [AZD5153] + CC1(C)CCC(CN2CCN(c3ccc(C(=O)NS(=O)(=O)c4ccc(NCC5CCOCC5)c([N+](=O)[O-])c4)c(Oc4cnc5[nH]ccc5c4)c3)CC2)=C(c2ccc(Cl)cc2)C1 [Venetoclax] (first compound max 1 µM, 7x7, partner max 1 µM)",-0.0124,-0.0256,-0.0536,-0.019,-0.0456,-0.0807,-0.0416,-0.0576,-0.0195,-0.085,-0.0263,-0.0793,-0.0682,-0.0979,-0.0846,-0.0111,,-0.0347,0.0223,-0.0392
"CC(=O)c1c(C)c2cnc(Nc3ccc(N4CCNCC4)cn3)nc2n(C2CCCC2)c1=O [Palbociclib] + Cn1cnc2c(F)c(Nc3ccc(Br)cc3Cl)c(C(=O)NOCCO)cc21 [Selumetinib] (first compound max 10 µM, 7x7, partner max 10 µM)",-0.0022,-0.0693,-0.0131,0.0209,-0.0165,-0.0664,0.0425,-0.0601,-0.0194,0.0151,0.0334,-0.0096,-0.0503,0.0259,-0.0418,-0.021,,-0.0278,-0.0201,0.0599
"Cn1cnc2c(F)c(Nc3ccc(Br)cc3Cl)c(C(=O)NOCCO)cc21 [Selumetinib] + C[C@@H]1COCCN1C2=NC(=NC(=C2)C3(CC3)[S@](=N)(=O)C)C4=C5C=CNC5=NC=C4 [AZD6738] (first compound max 10 µM, 7x7, partner max 10 µM)",-0.033,0.0427,-0.0293,-0.0036,0.0106,0.0716,0.012,-0.0994,-0.0748,0.0049,0.04,-0.0408,-0.0278,-0.0129,0.0049,-0.0604,,0.0359,-0.0028,0.0644
